Laboratory results as given in PubChem BioAssay AID1963830 (Molecular Pharmacology Branch, DTP, NCI, 2024).

Test system: 922993-354-T-J3-PDC complex spheroid viability
Assay: Anticancer human tumor 922993-354-T-J3-PDC patient-derived endometrial carcinoma cell line growth inhibition [POLQ]
Conditions: for IC50: curve of first compound; for viability, T/C: stronger effect = lower value; active means viability on the fitted dose curve at most 10% of control; inactive means the rest
Method in brief: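 Complex spheroid viability model combining PDC tumour cells with endothelial (HUVEC) and MSC stromal cells. Novobiocin, ART-558 or RP6685 were tested singly and in combination with standard and investigational anticancer drugs. Each was titrated in half-log steps from near clinical Cmax, or from 10 microM where Cmax was unknown.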

[1] = second compound 0.0316 µM, first compound 0.0316 µM
[2] = second compound 0.0316 µM, first compound 0.1 µM
[3] = second compound 0.0316 µM, first compound 0.316 µM
[4] = second compound 0.0316 µM, first compound 1 µM
[5] = second compound 0.0316 µM, first compound 3.16 µM
[6] = second compound 0.0316 µM, first compound 10 µM
[7] = second compound 0.1 µM, first compound 0.0316 µM
[8] = second compound 0.1 µM, first compound 0.1 µM
[9] = second compound 0.1 µM, first compound 0.316 µM
[10] = second compound 0.1 µM, first compound 1 µM
[11] = second compound 0.1 µM, first compound 3.16 µM
[12] = second compound 0.1 µM, first compound 10 µM
[13] = second compound 0.316 µM, first compound 0.0316 µM
[14] = second compound 0.316 µM, first compound 0.1 µM
[15] = second compound 0.316 µM, first compound 0.316 µM
[16] = second compound 0.316 µM, first compound 1 µM
[17] = second compound 0.316 µM, first compound 3.16 µM
[18] = second compound 0.316 µM, first compound 10 µM
[19] = second compound 1 µM, first compound 0.0316 µM
[20] = second compound 1 µM, first compound 0.1 µM
[21] = second compound 1 µM, first compound 0.316 µM
[22] = second compound 1 µM, first compound 1 µM
[23] = second compound 1 µM, first compound 3.16 µM
[24] = second compound 1 µM, first compound 10 µM
[25] = second compound 3.16 µM, first compound 0.0316 µM
[26] = second compound 3.16 µM, first compound 0.1 µM
[27] = second compound 3.16 µM, first compound 0.316 µM
[28] = second compound 3.16 µM, first compound 1 µM
[29] = second compound 3.16 µM, first compound 3.16 µM
[30] = second compound 3.16 µM, first compound 10 µM
[31] = second compound 10 µM, first compound 0.0316 µM
[32] = second compound 10 µM, first compound 0.1 µM
[33] = second compound 10 µM, first compound 0.316 µM
[34] = second compound 10 µM, first compound 1 µM
[35] = second compound 10 µM, first compound 3.16 µM
[36] = second compound 10 µM, first compound 10 µM
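Further: spheroids exposed to the agents for one week.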
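Wherever viability, T/C is given: 100% = DMSO vehicle control wells.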

CC(C)n1c(=O)n(C)c2cnc3cc(F)c(-c4ccc(OCCCN5CCCCC5)nc4)cc3c21 + COC1C(OC(N)=O)C(O)C(Oc2ccc3c(O)c(NC(=O)c4ccc(O)c(CC=C(C)C)c4)c(=O)oc3c2C)OC1(C)C
inactive: viability, T/C [1] 111% | viability, T/C [2] 90.8% | viability, T/C [3] 104% | viability, T/C [4] 94.8% | viability, T/C [5] 84.2% | viability, T/C [6] 59% | viability, T/C [7] 103% | viability, T/C [8] 97.2% | viability, T/C [9] 104% | viability, T/C [10] 91.9% | viability, T/C [11] 83.3% | viability, T/C [12] 63.7% | viability, T/C [13] 99.2% | viability, T/C [14] 104% | viability, T/C [15] 94.1% | viability, T/C [16] 93.5% | viability, T/C [17] 84.3% | viability, T/C [18] 66.5% | viability, T/C [19] 88.9% | viability, T/C [20] 98.3% | viability, T/C [21] 100% | viability, T/C [22] 91.9% | viability, T/C [23] 86.9% | viability, T/C [24] 70.3% | viability, T/C [25] 95.9% | viability, T/C [26] 104% | viability, T/C [27] 85.5% | viability, T/C [28] 86.2% | viability, T/C [29] 85.1% | viability, T/C [30] 56.7% | viability, T/C [31] 81% | viability, T/C [32] 77.1% | viability, T/C [33] 89.6% | viability, T/C [34] 74.1% | viability, T/C [35] 70.2% | viability, T/C [36] 63%
> 10 µM: IC50 (second compound 0.0316 µM) | IC50 (second compound 0.1 µM) | IC50 (second compound 0.316 µM) | IC50 (second compound 1 µM) | IC50 (second compound 3.16 µM) | IC50 (second compound 10 µM)

CC1COCCN1c1cc(C2(S(C)(=N)=O)CC2)nc(-c2ccnc3[nH]ccc23)n1 (stereo not drawn) + COC1C(OC(N)=O)C(O)C(Oc2ccc3c(O)c(NC(=O)c4ccc(O)c(CC=C(C)C)c4)c(=O)oc3c2C)OC1(C)C
> 10 µM: IC50 (second compound 0.316 µM) | IC50 (second compound 1 µM)
inactive: viability, T/C [1] 94.7% | viability, T/C [2] 94.6% | viability, T/C [3] 108% | viability, T/C [4] 105% | viability, T/C [5] 80.4% | viability, T/C [6] 49.8% | viability, T/C [7] 105% | viability, T/C [8] 92.2% | viability, T/C [9] 95.6% | viability, T/C [10] 93.2% | viability, T/C [11] 80.2% | viability, T/C [12] 41.5% | viability, T/C [13] 81.1% | viability, T/C [14] 105% | viability, T/C [15] 106% | viability, T/C [16] 101% | viability, T/C [17] 87.2% | viability, T/C [18] 52.5% | viability, T/C [19] 102% | viability, T/C [20] 101% | viability, T/C [21] 92.5% | viability, T/C [22] 88.6% | viability, T/C [23] 72.6% | viability, T/C [24] 52.8% | viability, T/C [25] 91.8% | viability, T/C [26] 103% | viability, T/C [27] 103% | viability, T/C [28] 85.7% | viability, T/C [29] 77% | viability, T/C [30] 44.9% | viability, T/C [31] 89.1% | viability, T/C [32] 84.7% | viability, T/C [33] 96% | viability, T/C [34] 84.2% | viability, T/C [35] 64.7% | viability, T/C [36] 46.9%
7.81 µM: IC50 (second compound 0.1 µM)
8.35 µM: IC50 (second compound 3.16 µM)
9.95 µM: IC50 (second compound 0.0316 µM)
8.17 µM: IC50 (second compound 10 µM)

COc1ccc([C@@H](O)c2cc(-c3ncnc4cc(N5CCOCC5)ccc34)c(F)cc2Cl)nn1 + COC1C(OC(N)=O)C(O)C(Oc2ccc3c(O)c(NC(=O)c4ccc(O)c(CC=C(C)C)c4)c(=O)oc3c2C)OC1(C)C
inactive: viability, T/C [1] 95.1% | viability, T/C [2] 81.3% | viability, T/C [3] 102% | viability, T/C [4] 94.9% | viability, T/C [5] 85.2% | viability, T/C [6] 58.2% | viability, T/C [7] 105% | viability, T/C [8] 92.8% | viability, T/C [9] 102% | viability, T/C [10] 79.6% | viability, T/C [11] 77.8% | viability, T/C [12] 72.9% | viability, T/C [13] 110% | viability, T/C [14] 97% | viability, T/C [15] 96% | viability, T/C [16] 85.2% | viability, T/C [17] 76.6% | viability, T/C [18] 72.2% | viability, T/C [19] 96% | viability, T/C [20] 110% | viability, T/C [21] 99.5% | viability, T/C [22] 98.1% | viability, T/C [23] 85.8% | viability, T/C [24] 74.8% | viability, T/C [25] 84.4% | viability, T/C [26] 93.1% | viability, T/C [27] 101% | viability, T/C [28] 87.9% | viability, T/C [29] 93.6% | viability, T/C [30] 69.2% | viability, T/C [31] 86.1% | viability, T/C [32] 90% | viability, T/C [33] 107% | viability, T/C [34] 83.8% | viability, T/C [35] 88.6% | viability, T/C [36] 69.8%
> 10 µM: IC50 (second compound 0.0316 µM) | IC50 (second compound 0.1 µM) | IC50 (second compound 0.316 µM) | IC50 (second compound 1 µM) | IC50 (second compound 3.16 µM) | IC50 (second compound 10 µM)

Cn1ncnc1[C@H]1c2n[nH]c(=O)c3cc(F)cc(c23)N[C@@H]1c1ccc(F)cc1 + COC1C(OC(N)=O)C(O)C(Oc2ccc3c(O)c(NC(=O)c4ccc(O)c(CC=C(C)C)c4)c(=O)oc3c2C)OC1(C)C
inactive: viability, T/C (second compound 0.0316 µM, first compound 0.000316 µM) 109% | viability, T/C (second compound 0.0316 µM, first compound 0.001 µM) 93.7% | viability, T/C (second compound 0.0316 µM, first compound 0.00316 µM) 98.5% | viability, T/C (second compound 0.0316 µM, first compound 0.01 µM) 104% | viability, T/C [1] 91.8% | viability, T/C [2] 74% | viability, T/C (second compound 0.1 µM, first compound 0.000316 µM) 107% | viability, T/C (second compound 0.1 µM, first compound 0.001 µM) 102% | viability, T/C (second compound 0.1 µM, first compound 0.00316 µM) 105% | viability, T/C (second compound 0.1 µM, first compound 0.01 µM) 99.9% | viability, T/C [7] 96.8% | viability, T/C [8] 79.8% | viability, T/C (second compound 0.316 µM, first compound 0.000316 µM) 108% | viability, T/C (second compound 0.316 µM, first compound 0.001 µM) 107% | viability, T/C (second compound 0.316 µM, first compound 0.00316 µM) 115% | viability, T/C (second compound 0.316 µM, first compound 0.01 µM) 98% | viability, T/C [13] 96.6% | viability, T/C [14] 86.1% | viability, T/C (second compound 1 µM, first compound 0.000316 µM) 105% | viability, T/C (second compound 1 µM, first compound 0.001 µM) 98.6% | viability, T/C (second compound 1 µM, first compound 0.00316 µM) 91.7% | viability, T/C (second compound 1 µM, first compound 0.01 µM) 105% | viability, T/C [19] 94.6% | viability, T/C [20] 84.5% | viability, T/C (second compound 3.16 µM, first compound 0.000316 µM) 93.7% | viability, T/C (second compound 3.16 µM, first compound 0.001 µM) 89.9% | viability, T/C (second compound 3.16 µM, first compound 0.00316 µM) 89.6% | viability, T/C (second compound 3.16 µM, first compound 0.01 µM) 86.3% | viability, T/C [25] 102% | viability, T/C [26] 79.4% | viability, T/C (second compound 10 µM, first compound 0.000316 µM) 88.6% | viability, T/C (second compound 10 µM, first compound 0.001 µM) 75.6% | viability, T/C (second compound 10 µM, first compound 0.00316 µM) 94.7% | viability, T/C (second compound 10 µM, first compound 0.01 µM) 85.7% | viability, T/C [31] 87.1% | viability, T/C [32] 70.7%
> 0.1 µM: IC50 (second compound 0.0316 µM) | IC50 (second compound 0.1 µM) | IC50 (second compound 0.316 µM) | IC50 (second compound 1 µM) | IC50 (second compound 3.16 µM) | IC50 (second compound 10 µM)
